From PMC7587970, “Lanostane Triterpenoids from the Fruiting Bodies of Fomes officinalis and Their Anti-Inflammatory Activities” (Molecules, 2020)
Where two headings read alike, the source gives them in different places.

Target: T1, cyclooxygenase (COX-2) (Ovis aries, UniProt P79208)
T1 construct: gene PTGS2
T1 sequence (P79208 17-603): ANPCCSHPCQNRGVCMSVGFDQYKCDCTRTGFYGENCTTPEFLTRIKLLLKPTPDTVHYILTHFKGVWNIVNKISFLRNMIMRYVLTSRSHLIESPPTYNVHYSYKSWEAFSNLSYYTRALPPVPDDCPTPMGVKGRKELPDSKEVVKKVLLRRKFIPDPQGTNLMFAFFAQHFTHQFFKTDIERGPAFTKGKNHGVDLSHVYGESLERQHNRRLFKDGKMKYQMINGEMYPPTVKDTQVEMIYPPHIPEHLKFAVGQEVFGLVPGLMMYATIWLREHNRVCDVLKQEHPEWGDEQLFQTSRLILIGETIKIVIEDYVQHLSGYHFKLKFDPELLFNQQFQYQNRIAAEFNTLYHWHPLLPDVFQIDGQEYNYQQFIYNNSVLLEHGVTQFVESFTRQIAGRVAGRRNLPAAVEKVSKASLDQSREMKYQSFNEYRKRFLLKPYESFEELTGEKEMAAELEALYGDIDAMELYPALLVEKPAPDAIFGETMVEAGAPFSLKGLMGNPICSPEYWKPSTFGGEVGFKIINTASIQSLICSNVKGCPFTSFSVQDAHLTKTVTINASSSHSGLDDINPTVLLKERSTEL
Experiment: COX colorimetric inhibitor screening assay kit (Cayman), ovine recombinant COX-2
Type: biochemical

C[C@@H]1C[C@]2(OC[C@]34[C@H](O)C=C5C(=CC[C@H]6C(C)(C)[C@H](OC(=O)CC(=O)O)CC[C@]56C)[C@]3(C)CC[C@H]14)OC(=O)[C@@H](C)[C@@H]2C [compound 3, officimalonic acid K]
IC50 (read-out: IC50): 30.1 µM

COc1ccc2cc([C@H](C)C(=O)O)ccc2c1 [naproxen, reference compound]
IC50: 8.2 µM

COC(=O)CC(=O)O[C@@H]1CC[C@]2(C)C3=C(C(=O)C[C@H]2C1(C)C)[C@]1(C)CC[C@H]([C@H](C)C[C@@H]2OC(=O)C(C)=C2C)[C@@]1(C)[C@H](O)C3 [compound 5, officimalonic acid M]
IC50 (read-out: IC50): 42.3 µM
